Measurements as given in ChEMBL document CHEMBL4257529, “Antifungal amphiphilic kanamycins: new life for an old drug” (Medchemcomm, 2018).
In brackets after ≈: the same amount, converted by molar mass.

How the values were obtained:
Assay type in all cases: functional
Fusarium graminearum [1] = assay: Synergistic antifungal activity against Fusarium graminearum B4-5A strain A in presence of fluconazole after 48 hrs by microdilution assay
Fusarium graminearum [2] = assay: Antifungal activity against Fusarium graminearum infected in wheat plant assessed as fusarium head blight severity at 180 mg/L (reference value: 75%)
Fusarium graminearum [3] = assay: Antifungal activity against Fusarium graminearum B-4-5A
Fusarium graminearum [4] = assay: Synergistic antifungal activity against Fusarium graminearum B4-5A strain D in presence of fluconazole after 48 hrs by checkerboard method
Fusarium graminearum [5] = assay: Synergistic antifungal activity against Fusarium graminearum B4-5A strain A assessed as fluconazole MIC after 48 hrs by microdilution assay
Cryptococcus neoformans [6] = assay: Antifungal activity against Cryptococcus neoformans 90-26
Fusarium graminearum [7] = assay: Synergistic antifungal activity against Fusarium graminearum infected in wheat plant assessed as fusarium head blight incidence at 360 mg/L in presence of 0.438 L/ha prosaro 421 SC (reference value: 70%)
Fusarium graminearum [8] = assay: Synergistic antifungal activity against Fusarium graminearum B4-5A strain B in presence of fluconazole after 48 hrs by checkerboard method
Fusarium graminearum [9] = assay: Synergistic antifungal activity against Fusarium graminearum B4-5A strain A in presence of fluconazole after 48 hrs by checkerboard method
Micrococcus luteus = assay: Antibacterial activity against Micrococcus luteus ATCC 10240
Fusarium graminearum [10] = assay: Synergistic antifungal activity against Fusarium graminearum infected in wheat plant assessed as spikelet curling at 360 mg/L in presence of 8 ml/L pyraclostrobin (reference value: 51.4%)
Fusarium graminearum [11] = assay: Antifungal activity against Fusarium graminearum infected in wheat plant assessed as fusarium head blight index at 180 mg/L (reference value: 53%)
Fusarium graminearum [12] = assay: Antifungal activity against Fusarium graminearum infected in wheat plant assessed as spikelet curling at 360 mg/L (reference value: 51.4%)
Fusarium graminearum [13] = assay: Antifungal activity against Fusarium graminearum infected in wheat plant assessed as fusarium head blight index at 360 mg/L (reference value: 53%)
Fusarium graminearum [14] = assay: Antifungal activity against Fusarium graminearum infected in wheat plant assessed as fusarium head blight incidence at 360 mg/L (reference value: 70%)
Fusarium graminearum [15] = assay: Synergistic antifungal activity against Fusarium graminearum infected in wheat plant assessed as fusarium head blight severity at 360 mg/L in presence of 0.512 L/ha caramba (reference value: 75%)
Fusarium graminearum [16] = assay: Antifungal activity against Fusarium graminearum B4-5A strain C after 48 hrs by microdilution assay
Fusarium graminearum [17] = assay: Synergistic antifungal activity against Fusarium graminearum B4-5A strain B assessed as fluconazole MIC after 48 hrs by microdilution assay
Candida parapsilosis [18] = assay: Antifungal activity against sensitive Candida parapsilosis; settings: Lodderomyces parapsilosis
Fusarium graminearum [19] = assay: Synergistic antifungal activity against Fusarium graminearum infected in wheat plant assessed as fusarium head blight severity at 360 mg/L in presence of 0.438 L/ha prosaro 421 SC (reference value: 75%)
Fusarium graminearum [20] = assay: Synergistic antifungal activity against Fusarium graminearum infected in wheat plant assessed as fusarium head blight severity at 180 mg/L in presence of 0.512 L/ha caramba (reference value: 75%)
Cryptococcus neoformans [21] = assay: Antifungal activity against Cryptococcus neoformans 94-2586
Fusarium graminearum [22] = assay: Antifungal activity against Fusarium graminearum infected in wheat plant assessed as fusarium head blight incidence at 180 mg/L (reference value: 70%)
Candida parapsilosis [23] = assay: Antifungal activity against resistant Candida parapsilosis; settings: Lodderomyces parapsilosis
Candida albicans [24] = assay: Antifungal activity against sensitive Candida albicans MYA-2876
Fusarium graminearum [25] = assay: Synergistic antifungal activity against Fusarium graminearum infected in wheat plant assessed as fusarium head blight index at 180 mg/L in presence of 0.512 L/ha caramba (reference value: 53%)
Fusarium graminearum [26] = assay: Synergistic antifungal activity against Fusarium graminearum B4-5A strain D assessed as fluconazole MIC after 48 hrs by microdilution assay
Fusarium graminearum [27] = assay: Antifungal activity against Fusarium graminearum B4-5A strain E after 48 hrs by microdilution assay
Fusarium graminearum [28] = assay: Synergistic antifungal activity against Fusarium graminearum B4-5A strain C assessed as fluconazole MIC after 48 hrs by microdilution assay
Staphylococcus aureus = assay: Antibacterial activity against Staphylococcus aureus ATCC 25923
Fusarium graminearum [29] = assay: Antifungal activity against Fusarium graminearum B4-5A strain A after 48 hrs by microdilution assay
Fusarium graminearum [30] = assay: Antifungal activity against Fusarium graminearum B4-5A strain D after 48 hrs by microdilution assay
Fusarium graminearum [31] = assay: Synergistic antifungal activity against Fusarium graminearum B4-5A strain D in presence of fluconazole after 48 hrs by microdilution assay
Fusarium graminearum [32] = assay: Synergistic antifungal activity against Fusarium graminearum infected in wheat plant assessed as fusarium head blight index at 360 mg/L in presence of 0.438 L/ha prosaro 421 SC (reference value: 53%)
Fusarium graminearum [33] = assay: Synergistic antifungal activity against Fusarium graminearum infected in wheat plant assessed as fusarium head blight incidence at 180 mg/L in presence of 0.438 L/ha prosaro 421 SC (reference value: 70%)
Fusarium graminearum [34] = assay: Synergistic antifungal activity against Fusarium graminearum infected in wheat plant assessed as fusarium head blight incidence at 180 mg/L in presence of 0.512 L/ha caramba (reference value: 70%)
Fusarium graminearum [35] = assay: Synergistic antifungal activity against Fusarium graminearum B4-5A strain E assessed as fluconazole MIC after 48 hrs by microdilution assay
Candida albicans [36] = assay: Antifungal activity against Candida albicans ATCC 10231
Diutina rugosa = assay: Antifungal activity against Candida rugosa 95-967
Cryptococcus neoformans [37] = assay: Antifungal activity against Cryptococcus neoformans H99; settings: var grubii H99
Escherichia coli = assay: Antibacterial activity against Escherichia coli TG1
Kluyveromyces marxianus = assay: Antifungal activity against Candida pseudotropicalis YOGI
Fusarium graminearum [38] = assay: Synergistic antifungal activity against Fusarium graminearum infected in wheat plant assessed as fusarium head blight index at 360 mg/L in presence of 0.512 L/ha caramba (reference value: 53%)
Fusarium graminearum [39] = assay: Antifungal activity against Fusarium graminearum B4-5A strain B after 48 hrs by microdilution assay
Fusarium graminearum [40] = assay: Synergistic antifungal activity against Fusarium graminearum infected in wheat plant assessed as contamination of wheat heads and kernels with deoxynivalenol at 360 mg/L in presence of 2.8 ml/L proline 480 SC (reference value: 1.2 ppm)
Fusarium graminearum [41] = assay: Synergistic antifungal activity against Fusarium graminearum B4-5A strain C in presence of fluconazole after 48 hrs by checkerboard method
Fusarium graminearum [42] = assay: Synergistic antifungal activity against Fusarium graminearum B4-5A strain C in presence of fluconazole after 48 hrs by microdilution assay
Fusarium graminearum [43] = assay: Synergistic antifungal activity against Fusarium graminearum infected in wheat plant assessed as spikelet curling at 360 mg/L in presence of 4 ml/L pyraclostrobin (reference value: 51.4%)
Fusarium graminearum [44] = assay: Synergistic antifungal activity against Fusarium graminearum infected in wheat plant assessed as fusarium head blight incidence at 360 mg/L in presence of 0.512 L/ha caramba (reference value: 70%)

CCCCCCCCS(=O)(=O)OC[C@H]1O[C@H](O[C@@H]2[C@@H](O)[C@H](O[C@H]3O[C@H](CN)[C@@H](O)[C@H](O)[C@H]3O)[C@@H](N)C[C@H]2N)[C@H](O)[C@@H](N)[C@@H]1O
MIC (Fusarium graminearum [1]): 4 mg/L | Activity (Fusarium graminearum [2]): 60% | MIC (Fusarium graminearum [3]): 7.8 mg/L (≈ 11.8 µM) | fractional inhibitory concentration index (FICI) (Fusarium graminearum [4]): 0.5 | MIC (Fusarium graminearum [5]): 25 mg/L | MIC (Cryptococcus neoformans [6]): 3.9 to 7.8 mg/L (≈ 5.9 to 11.8 µM) | Activity (Fusarium graminearum [7]): 10% | fractional inhibitory concentration index (FICI) (Fusarium graminearum [8]): 0.5 | fractional inhibitory concentration index (FICI) (Fusarium graminearum [9]): 0.37 | MIC (Micrococcus luteus): 62.5 mg/L (≈ 94.6 µM) | Activity (Fusarium graminearum [10]): 1.5% | Activity_index (Fusarium graminearum [11]): 9% | Activity (Fusarium graminearum [12]): 34.7% | Activity_index (Fusarium graminearum [13]): 8% | Activity (Fusarium graminearum [14]): 14% | Activity (Fusarium graminearum [15]): 61% | MIC (Fusarium graminearum [16]): 16 mg/L (≈ 24.2 µM) | MIC (Fusarium graminearum [17]): 6.25 mg/L | MIC (Candida parapsilosis [18]): 15.6 mg/L (≈ 23.6 µM) | Activity (Fusarium graminearum [19]): 54% | Activity (Fusarium graminearum [20]): 50% | MIC (Cryptococcus neoformans [21]): 3.9 to 7.8 mg/L (≈ 5.9 to 11.8 µM) | Activity (Fusarium graminearum [22]): 15% | MIC (Candida parapsilosis [23]): 15.6 to 31.3 mg/L (≈ 23.6 to 47.4 µM) | MIC (Candida albicans [24]): 15.6 mg/L (≈ 23.6 µM) | Activity_index (Fusarium graminearum [25]): 7% | MIC (Fusarium graminearum [26]): 0.195 mg/L | MIC (Fusarium graminearum [27]): 16 mg/L (≈ 24.2 µM) | MIC (Fusarium graminearum [28]): 0.25 mg/L | MIC (Staphylococcus aureus): 250 mg/L (≈ 378 µM) | MIC (Fusarium graminearum [29]): 16 mg/L (≈ 24.2 µM) | MIC (Fusarium graminearum [30]): 16 mg/L (≈ 24.2 µM) | MIC (Fusarium graminearum [31]): 8 mg/L | Activity_index (Fusarium graminearum [32]): 5% | Activity (Fusarium graminearum [33]): 11% | Activity (Fusarium graminearum [34]): 15% | MIC (Fusarium graminearum [35]): 12.5 mg/L | MIC (Candida albicans [36]): 15.6 mg/L (≈ 23.6 µM) | MIC (Diutina rugosa): 15.6 mg/L (≈ 23.6 µM) | MIC (Cryptococcus neoformans [37]): 3.9 to 7.8 mg/L (≈ 5.9 to 11.8 µM) | MIC (Escherichia coli): 125 to 250 mg/L (≈ 189 to 378 µM) | MIC (Kluyveromyces marxianus): 15.6 mg/L (≈ 23.6 µM) | Activity_index (Fusarium graminearum [38]): 8% | MIC (Fusarium graminearum [39]): 16 mg/L (≈ 24.2 µM) | Activity (Fusarium graminearum [40]): 0.3 ppm | fractional inhibitory concentration index (FICI) (Fusarium graminearum [41]): 0.37 | MIC (Fusarium graminearum [42]): 4 mg/L | Activity (Fusarium graminearum [43]): 4.7% | Activity (Fusarium graminearum [44]): 13%
